Experimental data: the supplement of paper PMC10307832

compound: CC1(C)CNc2cc(NC(=O)c3cccnc3NCc3ccncc3)ccc21 [Motesanib] + CCNC(=O)c1noc(-c2cc(C(C)C)c(O)cc2O)c1-c1ccc(CN2CCOCC2)cc1 [Luminespib] (partner 0.01 µM); test: relative viability (nuclei count vs DMSO), 5 days (fraction); higher = more cells survive; settings: first compound 0.01 µM
Outline: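 After 5 days of treatment, lung cancer cells in 1536-well plates were fixed and stained in a single step (final 0.05% Triton X-100, 1% formaldehyde, 1 ug/ml Hoechst) and their nuclei counted on 4× images. Treatment had been applied by pin tool the day after seeding as one drug alone or as a fixed anchor-drug dose with five library-drug doses (not always all listed) in √10 steps. Relative viability is the nuclei count of treated wells divided by that of vehicle wells, and values are medians of duplicate plates.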

Row | Cell Line | relative viability
1 | NCI-H2347 | 0.858
2 | SK-LU-1 | 0.219
3 | NCI-H1395 | 0.662
4 | 201T | 1.02
5 | NCI-H1915 | 0.765
6 | HCC-827 | 0.777
7 | LXF-289 | 0.639
8 | NCI-H647 | 0.122
9 | CAL-12T | 0.371
10 | NCI-H1651 | 0.673
11 | EPLC-272H | 0.302
12 | NCI-H2228 | 0.19
13 | NCI-H1355 | 0.719
14 | NCI-H3122 | 0.0808
15 | NCI-H1437 | 1.13
16 | NCI-H1755 | 0.492
17 | NCI-H2023 | 0.778
18 | HCC-15 | 0.33
19 | NCI-H1793 | 0.26
20 | PC-14 | 0.117
21 | EKVX | 0.847
22 | LC-2-ad | 1.03
23 | NCI-H1944 | 0.79
24 | NCI-H1975 | 0.275
25 | RERF-LC-KJ | 1.31
26 | ABC-1 | 0.637

same assay, conditions: first compound 0.03162 µM

Row | Cell Line | relative viability
27 | LCLC-97TM1 | 0.809
28 | NCI-H2009 | 1.04
29 | A-427 | 1.05
30 | NCI-H441 | 0.314
31 | NCI-H661 | 0.968
32 | NCI-H1734 | 0.188
33 | NCI-H460 | 0.0382
34 | NCI-H2347 | 0.254
35 | SK-LU-1 | 0.188
36 | NCI-H1395 | 0.665
37 | 201T | 1.02
38 | NCI-H1915 | 0.745
39 | HCC-827 | 0.809
40 | LXF-289 | 0.71
41 | NCI-H23 | 0.193
42 | NCI-H647 | 0.144
43 | CAL-12T | 0.375

Row | Cell Line | relative viability
44 | NCI-H1651 | 0.89
45 | EPLC-272H | 0.268
46 | NCI-H2228 | 0.148
47 | NCI-H1355 | 0.659
48 | NCI-H3122 | 0.0851
49 | NCI-H1437 | 1.07
50 | NCI-H1755 | 0.505
51 | NCI-H2023 | 0.687
52 | HCC-15 | 0.38
53 | NCI-H1793 | 0.196
54 | PC-14 | 0.142
55 | EKVX | 0.836
56 | LC-2-ad | 1.01
57 | NCI-H1944 | 0.785
58 | NCI-H1975 | 0.203
59 | RERF-LC-KJ | 1.2
60 | ABC-1 | 0.867

same assay, conditions: first compound 0.1 µM

Row | Cell Line | relative viability
61 | LCLC-97TM1 | 0.707
62 | NCI-H2009 | 0.945
63 | A-427 | 0.769
64 | NCI-H441 | 0.333
65 | NCI-H661 | 0.948
66 | NCI-H460 | 0.0342
67 | NCI-H2347 | 0.5
68 | SK-LU-1 | 0.195
69 | NCI-H1395 | 0.65
70 | 201T | 1.11
71 | NCI-H1915 | 0.764
72 | HCC-827 | 0.775
73 | LXF-289 | 0.655
74 | NCI-H23 | 0.209
75 | NCI-H647 | 0.387
76 | CAL-12T | 0.195
77 | NCI-H1651 | 0.8
78 | NCI-H2228 | 0.228
79 | NCI-H1355 | 0.658
80 | NCI-H3122 | 0.0914
